{
  "source": "patent US20020049157A1",
  "about": "“Use of proteasome inhibitors for treating cancer, inflammation, autoimmune disease, graft rejection and septic shock” (priority 1998, published 2002)",
  "format_in_all_cases": "cell-based, human",
  "key": {"[1]": {"system": "Tonsillar B cells", "assay": "B cell proliferation induced with SAC plus IL-2 (3H-thymidine uptake)", "description": "Lymphocytes were stimulated with various mitogens as indicated, and LAC at different concentrations was added at the beginning of the cultures. The cells were pulsed with 3H-thymidine between 48 h and 64 h. Samples were in triplicates. All the experiments were performed at least three times and similar results were obtained. Representative results are shown.\nD: Tonsillar B cells stimulated with SAC (1:15,000 dilution) and IL-2 (100 μ/ml).\nThe role of proteasome in T cell activation and proliferation was first examined in PBMC, using the proteasome-specific inhibitor LAC. The PBMC were activated with various stimulants. LAC was added to the cells in the beginning of the culture (0 h) along with the stimulants. ^3H-thymidine uptake between 48 h and 64 h of 64 h cultures was used as a parameter for cell proliferation. […] Rather, it likely affects certain downstream events governing a more general process(es) in lymphocyte activation and proliferation.\nPeripheral blood mononuclear cells (PBMC) and tonsillar T cells were prepared as described before (Luo et al., 1992, Transplantation 53:1071; Luo et al., 1993, Clin. & Exp. Immunol. 94:371). The cells were cultured in RPMI 1640 supplemented with 10% FCS, L-glutamine and antibiotics. ^3H-thymidine uptake was carried out as described previously (Luo et al., 1992, supra; Luo et al., 1993, supra)."}, "[2]": {"system": "CDK4", "assay": "Immunoprecipitation kinase assay, CDK4", "conditions": "PHA-activated T cells; LAC 10 μM added once at 0 h; examined at 16 h and 40 h", "description": "Tonsillar T cells were activated with PHA (2 μg/ml) for a period as indicated in each graph. LAC (10 μM) was added once at 0 h. The cells were harvested at 16 h, 24 h, or 40 h as indicated. An equal amount of lysate protein ([…]) was precipitated with rabbit anti-CDK4, anti-CDK2 or anti-Cyclin E antisera (2.5 μg Ab/sample). The immune complexes were assayed for their kinase activities using histone H1 as a substrate. (A) CDK4 kinase activity. (B) CDK2 kinase activity. (C) Cyclin E-associated CDK activity. The membrane in (C) was subsequently hybridized with anti-Cyclin E (1 μg/ml) followed by ^125I-protein A for the evaluation of the protein level of Cyclin E.\nThis was in agreement with the critical role of CDK4 in the early […].\nLymphocytes were lysed by a lysis buffer as used in the immunoblotting (Chen et al., 1996, supra), and cleared lysates were quantitated for their protein content. For immunoprecipitation, 50 μl of rabbit antisera against CDK2, CDK4 or Cyclin E were added to the lysates equivalent to 20 or 40 μg protein depending on the experiment. After 2 h incubation at 4° C., the immune complexes were recovered by protein A-conjugated Sepharose (Pharmacia Biotech, Montreal, Quebec, Canada). […] The proteins were then transferred to PVDF membranes and the signals were detected by autoradiography."}, "[3]": {"system": "Namalwa", "assay": "Quantitative filter elution assay of DNA fragmentation in Namalwa cells", "conditions": "lactacystin 0.75-10 μM; 24-96 h", "description": "A human B cell line Namalwa was stably transfected with an anti-apoptotic Bcl-2 family member Bcl-xL, and its sensitivity to the proteasome inhibitor-induced apoptosis tested by the quantitative filter elution assay (Schmitt et al., 1998, Exp. Cell Res. 240:107), which detects DNA fragmentation during apoptosis. The wild type Namalwa and transfected Namalwa cells overexpressing Bcl-xL were pulsed with ^14C-thymidine for 24 h, and then treated with different concentrations of lactacystin (0.75 μM, 1.5 μM, 3 μM, 6 μM and 10 μM). The cells were harvested at different time intervals (24-96 h), and DNA fragmentation measured."}},
  "data": [
    {"molecule": "CC(=O)N[C@@H](CSC(=O)[C@]1([C@@H](O)C(C)C)NC(=O)[C@H](C)[C@@H]1O)C(=O)O", "note": "[LAC, lactacystin]", "values": [
      {"measurement": "inhibition of B cell proliferation (3H-thymidine uptake)", "setting": "[1]; LAC added at 0 h", "value": "potently inhibited"},
      {"measurement": "extent of inhibition of B cell proliferation", "setting": "[1]; LAC at 5 μM", "value": "near-to-maximal inhibition"},
      {"measurement": "CDK4 kinase activity", "setting": "[2]", "value": "did not affect the CDK4 activity"},
      {"measurement": "DNA fragmentation in Bcl-xL transfected vs wild type Namalwa cells", "setting": "[3]", "value": "demonstrably less DNA fragmentation"}
    ]}
  ]
}
